Assay type in all cases: cell-based
One test concerns the target T1, αvβ8 (Homo sapiens, UniProt P06756+P26012).
T1 construct: expressed in transfected cells; host or cells: K562
In words: Cell adhesion assay, K562-αvβ8 (LAP-b1). As to conditions: read-out: αvβ8 pIC50 (converted).

A further test deals with T2, αvβ1 (Homo sapiens, UniProt P05556+P06756).
T2 construct: host or cells: A549
In words: Cell adhesion assay, A549-αvβ1 (LAP-b1).

A further test deals with T3, αvβ6 (Homo sapiens, UniProt P06756+P18564).
T3 construct: expressed in transfected cells; host or cells: K562
T3 sequence (P06756 31-889 limits assumed): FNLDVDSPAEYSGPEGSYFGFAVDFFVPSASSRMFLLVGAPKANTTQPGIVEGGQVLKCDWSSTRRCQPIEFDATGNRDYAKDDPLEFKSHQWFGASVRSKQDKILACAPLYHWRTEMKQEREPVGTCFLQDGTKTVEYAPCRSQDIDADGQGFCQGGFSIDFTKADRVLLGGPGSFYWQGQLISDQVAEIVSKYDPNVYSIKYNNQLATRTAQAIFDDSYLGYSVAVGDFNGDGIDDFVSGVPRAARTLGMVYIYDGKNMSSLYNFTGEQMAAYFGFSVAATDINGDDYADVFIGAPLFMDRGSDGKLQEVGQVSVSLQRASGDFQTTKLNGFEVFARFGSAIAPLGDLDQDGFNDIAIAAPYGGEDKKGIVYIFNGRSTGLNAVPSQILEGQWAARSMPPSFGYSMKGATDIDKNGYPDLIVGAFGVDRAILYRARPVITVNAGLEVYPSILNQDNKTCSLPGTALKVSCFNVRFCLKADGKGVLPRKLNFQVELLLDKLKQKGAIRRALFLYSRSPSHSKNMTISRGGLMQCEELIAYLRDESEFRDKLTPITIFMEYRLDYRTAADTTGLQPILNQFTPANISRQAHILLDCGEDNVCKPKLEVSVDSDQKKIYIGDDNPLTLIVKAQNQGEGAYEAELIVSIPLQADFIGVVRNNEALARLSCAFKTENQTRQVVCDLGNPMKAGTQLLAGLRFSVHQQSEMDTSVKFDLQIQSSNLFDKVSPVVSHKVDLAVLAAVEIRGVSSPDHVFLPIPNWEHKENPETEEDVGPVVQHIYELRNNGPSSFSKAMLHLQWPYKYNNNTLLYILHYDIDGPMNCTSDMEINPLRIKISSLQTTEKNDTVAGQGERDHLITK
T3 sequence (P06756 891-1048 partner limits assumed): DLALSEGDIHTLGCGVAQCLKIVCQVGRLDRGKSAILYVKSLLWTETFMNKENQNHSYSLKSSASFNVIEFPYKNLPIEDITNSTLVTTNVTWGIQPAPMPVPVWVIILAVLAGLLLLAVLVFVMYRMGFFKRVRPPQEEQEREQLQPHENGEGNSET
T3 sequence (P18564 22-788): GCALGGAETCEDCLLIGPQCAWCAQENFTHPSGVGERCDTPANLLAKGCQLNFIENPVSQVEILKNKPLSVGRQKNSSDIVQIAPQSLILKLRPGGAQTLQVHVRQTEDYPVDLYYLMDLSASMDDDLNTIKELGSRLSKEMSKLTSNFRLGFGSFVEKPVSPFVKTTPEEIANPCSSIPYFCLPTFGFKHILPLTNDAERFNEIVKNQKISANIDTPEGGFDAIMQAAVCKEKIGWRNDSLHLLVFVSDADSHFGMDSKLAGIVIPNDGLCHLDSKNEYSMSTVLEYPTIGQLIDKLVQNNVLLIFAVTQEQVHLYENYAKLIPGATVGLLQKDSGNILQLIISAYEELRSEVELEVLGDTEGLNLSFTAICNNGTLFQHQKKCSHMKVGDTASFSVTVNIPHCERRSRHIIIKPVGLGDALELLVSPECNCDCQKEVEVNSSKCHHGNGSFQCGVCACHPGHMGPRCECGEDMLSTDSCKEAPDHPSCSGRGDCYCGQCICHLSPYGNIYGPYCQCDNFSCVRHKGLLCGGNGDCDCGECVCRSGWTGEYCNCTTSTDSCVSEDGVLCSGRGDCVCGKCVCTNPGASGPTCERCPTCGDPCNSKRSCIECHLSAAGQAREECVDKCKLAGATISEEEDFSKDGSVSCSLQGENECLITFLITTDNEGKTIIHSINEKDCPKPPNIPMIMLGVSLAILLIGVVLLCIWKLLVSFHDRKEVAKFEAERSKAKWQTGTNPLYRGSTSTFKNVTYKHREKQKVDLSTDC
In words: Cell adhesion assay, K562-αvβ6 (LAP-b1). As to conditions: read-out: αvβ6 pIC50 (converted).

For a further test, the target named is T4, αvβ5 (Homo sapiens, UniProt P06756+P18084).
T4 construct: expressed in transfected cells; host or cells: K562
T4 sequence (P06756 31-889 limits assumed): as the sequence (P06756 31-889 limits assumed) above
T4 sequence (P06756 891-1048 partner limits assumed): as the sequence (P06756 891-1048 partner limits assumed) above
T4 sequence (P18084 24-799): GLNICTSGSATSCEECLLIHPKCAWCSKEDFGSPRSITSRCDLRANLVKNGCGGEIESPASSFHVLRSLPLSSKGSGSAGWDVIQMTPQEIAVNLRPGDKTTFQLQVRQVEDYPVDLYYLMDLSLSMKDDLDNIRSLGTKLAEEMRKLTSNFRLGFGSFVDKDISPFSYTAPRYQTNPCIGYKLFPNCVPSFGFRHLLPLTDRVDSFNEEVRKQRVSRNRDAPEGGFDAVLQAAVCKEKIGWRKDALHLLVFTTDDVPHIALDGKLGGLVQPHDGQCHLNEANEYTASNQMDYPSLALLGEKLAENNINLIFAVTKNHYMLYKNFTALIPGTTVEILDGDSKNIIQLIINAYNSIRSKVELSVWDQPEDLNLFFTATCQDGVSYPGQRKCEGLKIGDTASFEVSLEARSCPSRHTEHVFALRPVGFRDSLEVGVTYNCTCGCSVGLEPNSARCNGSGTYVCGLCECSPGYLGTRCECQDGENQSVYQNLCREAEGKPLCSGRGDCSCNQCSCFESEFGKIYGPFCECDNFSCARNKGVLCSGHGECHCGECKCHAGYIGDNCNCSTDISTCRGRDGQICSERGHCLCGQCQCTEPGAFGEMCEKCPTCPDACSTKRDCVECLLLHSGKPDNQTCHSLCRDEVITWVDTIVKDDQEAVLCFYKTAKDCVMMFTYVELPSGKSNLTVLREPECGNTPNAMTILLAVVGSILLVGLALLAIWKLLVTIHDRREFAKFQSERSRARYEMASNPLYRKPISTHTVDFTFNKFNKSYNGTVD
Put plainly: Cell adhesion assay, K562-αvβ5 (Vitronectin). As to conditions: read-out: αvβ5 pIC50 (converted).

In another test the target is T5, αvβ3 (Homo sapiens, UniProt P05106+P06756).
T5 construct: expressed in transfected cells; host or cells: K562
In words: Cell adhesion assay, K562-αvβ3 (LAP-b1). As to conditions: read-out: αvβ3 pIC50 (converted).

Where [1] appears, read: cell adhesion, A549-αvβ1 cells, ligand LAP-b1, 2 mM MgCl2, mean pIC50.

Where a name gives a salt, the structure may show the parent alone. Read-outs that look alike come from different tables or passages of the source.

T2 sequence (P06756 31-889 limits assumed): as the sequence (P06756 31-889 limits assumed) above
T2 sequence (P06756 891-1048 partner limits assumed): as the sequence (P06756 891-1048 partner limits assumed) above
T2 sequence (P05556 21-798): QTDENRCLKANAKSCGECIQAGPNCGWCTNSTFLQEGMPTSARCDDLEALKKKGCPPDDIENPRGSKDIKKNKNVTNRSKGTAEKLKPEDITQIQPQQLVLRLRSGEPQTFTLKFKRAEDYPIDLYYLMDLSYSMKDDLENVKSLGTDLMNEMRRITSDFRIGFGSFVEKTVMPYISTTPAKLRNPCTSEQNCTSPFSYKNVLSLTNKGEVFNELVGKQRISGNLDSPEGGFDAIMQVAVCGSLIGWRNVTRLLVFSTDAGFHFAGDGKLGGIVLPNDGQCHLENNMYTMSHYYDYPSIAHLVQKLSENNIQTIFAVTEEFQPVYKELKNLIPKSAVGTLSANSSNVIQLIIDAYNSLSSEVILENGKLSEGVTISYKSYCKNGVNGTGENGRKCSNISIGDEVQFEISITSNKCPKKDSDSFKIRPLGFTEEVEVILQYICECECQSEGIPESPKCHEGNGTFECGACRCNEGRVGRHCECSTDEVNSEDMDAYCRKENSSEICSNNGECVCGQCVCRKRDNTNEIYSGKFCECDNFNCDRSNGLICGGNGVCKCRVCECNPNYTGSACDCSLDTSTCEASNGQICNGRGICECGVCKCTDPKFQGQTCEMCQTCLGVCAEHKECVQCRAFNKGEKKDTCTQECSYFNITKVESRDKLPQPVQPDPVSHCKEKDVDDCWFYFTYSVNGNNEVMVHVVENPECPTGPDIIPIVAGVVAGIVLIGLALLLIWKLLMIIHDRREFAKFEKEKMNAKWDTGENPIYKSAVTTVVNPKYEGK
T1 sequence (P06756 31-889 limits assumed): as the sequence (P06756 31-889 limits assumed) above
T1 sequence (P06756 891-1048 partner limits assumed): as the sequence (P06756 891-1048 partner limits assumed) above
T1 sequence (P26012 43-769): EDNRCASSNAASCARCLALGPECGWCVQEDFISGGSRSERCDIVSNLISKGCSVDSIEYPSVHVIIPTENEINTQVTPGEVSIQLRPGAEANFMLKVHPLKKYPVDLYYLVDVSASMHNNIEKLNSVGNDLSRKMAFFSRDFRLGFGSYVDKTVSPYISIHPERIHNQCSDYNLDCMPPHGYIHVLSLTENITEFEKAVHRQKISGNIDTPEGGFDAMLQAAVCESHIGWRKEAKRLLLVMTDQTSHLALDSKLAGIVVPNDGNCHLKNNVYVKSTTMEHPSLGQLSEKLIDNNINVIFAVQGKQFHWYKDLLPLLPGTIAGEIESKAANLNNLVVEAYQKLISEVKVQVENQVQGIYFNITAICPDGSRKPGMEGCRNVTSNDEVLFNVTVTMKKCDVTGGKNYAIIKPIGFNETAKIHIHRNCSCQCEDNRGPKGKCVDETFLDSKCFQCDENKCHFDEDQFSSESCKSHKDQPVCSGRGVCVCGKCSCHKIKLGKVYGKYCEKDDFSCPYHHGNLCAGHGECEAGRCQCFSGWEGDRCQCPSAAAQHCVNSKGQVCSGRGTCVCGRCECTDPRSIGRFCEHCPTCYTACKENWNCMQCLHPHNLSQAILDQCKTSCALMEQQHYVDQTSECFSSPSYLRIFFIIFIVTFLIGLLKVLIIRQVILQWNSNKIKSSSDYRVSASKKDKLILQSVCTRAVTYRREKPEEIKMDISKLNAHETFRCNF
Protocol for αvβ1: (§1) The following cell lines were used, with ligands in brackets: K562-αvβ3 (LAP-b1), K562-αvβ5 (Vitronectin), K562-αvβ6 (LAP-b1), K562-αvβ8 (LAP-b1), A549-αvβ1 (LAP-b1). The divalent cation used to facilitate adhesion was 2 mM MgCl2. Adhesion was quantified by cell labelling with the fluorescent dye BCECF-AM (Life Technologies), where cell suspensions at 3×10^6 cells/mL were incubated with 0.33 uL/mL of 30 mM BCECF-AM at 37° C. for 10 minutes, then 50 μL/well were dispensed into the 96-well assay plate. At the assay conclusion cells that adhered were lysed using 50 μL/well of 0.5% Triton X-100 in H2O to release fluorescence. Fluorescence intensity was detected using an Envision® plate reader (Perkin Elmer). For active antagonists in the assay, data were fitted to a 4 parameter logistic equation for IC50 determinations.
Figures quoted are Mean pIC50 values.
Protocol for αvβ3: as §1
Figures quoted are Mean pIC50 values.
Protocol for αvβ5: as §1
Figures quoted are Mean pIC50 values.
Protocol for αvβ6: as §1
Figures quoted are Mean pIC50 values.
Protocol for αvβ8: as §1
Figures quoted are Mean pIC50 values.

For the compound `O=C(O)C[C@H](CN1CC[C@](F)(CCc2ccc3c(n2)NCCC3)C1)c1cccc(N2CCOCC2)c1` [Example 2, (S)-4-(R)-(3-Fluoro-3-(2-(5,6,7,8-tetrahydro-1,8-naphthyridin-2-yl)ethyl)pyrrolidin-1-yl)-3-(3-morpholinophenyl)butanoic acid], the IC50 at αvβ8 was 25.1 nM.

Turning to `O=C(O)C[C@H](CN1CC[C@@](F)(CCc2ccc3c(n2)NCCC3)C1)c1cccc(N2CCOCC2)c1` [Example 3, (S)-4-(S)-(3-Fluoro-3-(2-(5,6,7,8-tetrahydro-1,8-naphthyridin-2-yl)ethyl)pyrrolidin-1-yl)-3-morpholinophenyl)butanoic acid maleate salt], the IC50 at αvβ1 (setting [1]) is 79.4 nM.

Turning to `O=C(O)C[C@H](CN1CC[C@@](F)(CCc2ccc3c(n2)NCCC3)C1)c1cccc(N2CCOCC2)c1` [Example 4, (S)-4-(S)-(3-Fluoro-3-(2-(5,6,7,8-tetrahydro-1,8-naphthyridin-2-yl)ethyl)pyrrolidin-1-yl)-3-(3-morpholinophenyl)butanoic acid fumarate salt], the IC50 against αvβ1 (setting [1]) is 100 nM.

Take `O=C(O)C[C@H](CN1CC[C@@](F)(CCc2ccc3c(n2)NCCC3)C1)c1cc(N2CCOCC2)ccc1F` [Example 5, (S)-4-((S)-3-Fluoro-3-(2-(5,6,7,8-tetrahydro-1,8-naphthyridin-2-yl)ethyl)pyrrolidin-1-yl)-3-(2-fluoro-5-morpholinophenyl)butanoic acid]: the IC50 at αvβ6 was 15.8 nM; at αvβ1 (read-out: αvβ1 pIC50 (converted)) it was 158 nM; on αvβ5, 316 nM; on αvβ8, 25.1 nM; at αvβ3, 794 nM.

Regarding `O=C(O)CC(CN1CC[C@](F)(CCc2ccc3c(n2)NCCC3)C1)c1cc(N2CCOCC2)ccc1F` (stereo partly drawn) [Example 9, 4-((R)-3-Fluoro-3-(2-(5,6,7,8-tetrahydro-1,8-naphthyridin-2-yl)ethyl)pyrrolidin-1-yl)-3-(2-fluoro-5-morpholinophenyl)butanoic acid], the IC50 on αvβ6 is 25.1 nM; at αvβ5 it was 316 nM; at αvβ8 it was 79.4 nM; at αvβ3 it was 7940 nM.

(Values after patent US10000489B2, “Compounds αvβ6 integrin antagonists” (GlaxoSmithKline Intellectual Property Development Limited, priority 2014, dated 2018).)
